The values below come from US20060069132A1, “Azolecarboxamide herbicides” (priority 2004, published 2006).

For test [1], the system named is soybean. The test can be described thus: Test C pre-/postemergence herbicide test. The format is in vivo, Glycine max. Conditions: for Plant response rating (0 = no effect, 100 = complete control), Soybean: 125 g ai/ha. Put shortly:
(§1)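 Visual ratings on a 0–100 scale (100 = complete control) made versus untreated controls after 12 to 14 greenhouse days. Test chemicals, formulated in surfactant-containing non-phytotoxic solvent, applied preemergence to planted seeds or postemergence to 1- to 4-leaf plants (2 to 18 cm).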

The subject of test [2] is bermudagrass. The test can be described thus: Test C pre-/postemergence herbicide test. The format is in vivo, Cynodon dactylon. Put shortly: as §1
Test [3] concerns goosegrass. Briefly: Test C pre-/postemergence herbicide test. It counts as in vivo, Eleusine indica. In a few lines: as §1
In test [4] the test system is woolly cupgrass. The test can be described thus: Test C pre-/postemergence herbicide test. It counts as in vivo, Eriochloa villosa. In a few lines:
as §1

Test [5] has as its system morningglory. Briefly: Test C pre-/postemergence herbicide test. It counts as in vivo, Ipomoea coccinea. Also on record: key to Plant response rating, Morningglory: 0 = no effect, 100 = complete control. Put shortly:
as §1

The subject of test [6] is velvetleaf. The test can be described thus: Test B pre-/postemergence herbicide test. It counts as in vivo, Abutilon theophrasti. Conditions: for Plant response rating (0 to 100 scale), Velvetleaf: 0 is no effect, preemergence. Put shortly:
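Herbicidal effect was judged by eye on a 0–100 scale after plants stood 13 to 15 days in the greenhouse following pre- or postemergence treatment with surfactant-containing formulations.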

[7] abbreviates: 62 g ai/ha, preemergence, scale 0 to 100.
Setting [8] is: 250 g ai/ha, scale 0-100, preemergence.
Where [9] appears, read: 31 g ai/ha, scale 0 to 100, 0 no effect, 100 complete control, last section of Table C (species set of preemergence test).
Where [10] appears, read: 62 g ai/ha, preemergence, scale 0 to 100, 0 no effect, 100 complete control.
[11] abbreviates: 125 g ai/ha, scale 0 (no effect) to 100 (complete control), visual, 12 to 14 days, preemergence.
Where [12] appears, read: 125 g ai/ha, 100 is complete control.
The mark [13] stands for this setting: 125 g ai/ha, visual rating, scale 0 (no effect) to 100 (complete control), postemergence.
[14] abbreviates: Postemergence, 250 g ai/ha, scale 0 to 100, 0 no effect, 100 complete control.
The mark [15] stands for this setting: postemergence, 125 g ai/ha, scale 0 to 100.
The mark [16] stands for this setting: postemergence, 62 g ai/ha, scale 0 to 100.
[17] abbreviates: Postemergence, 500 g ai/ha, scale 0 (no effect) to 100 (complete control).
Where [18] appears, read: 500 g ai/ha, scale 0 to 100 (0 no effect, 100 complete control), visual, 12 to 14 days, preemergence.

Structures are written as SMILES.

Regarding `CCn1nc(C(C)(C)C)cc1C(=O)Nc1cc(C(=S)N(C)C)ccn1` [Compound 334], the figures for the “Plant response rating, Soybean” value in test [1] (setting [7]) and in test [1] (setting [8]) were 15 and 80, respectively. Moreover, the “Plant response rating, Bermudagrass” value in test [2] (setting [9]), in test [2] (setting [10]), in test [2] (setting [11]) and in test [2] (setting [8]) was 100 each time. In addition, the “Plant response rating, Goosegrass” value in test [3] (setting [7]), in test [3] (setting [11]) and in test [3] (setting [8]) was 100 throughout. For the same molecule, the “Plant response rating, Cupgrass, Woolly” value was 25 in test [4] (setting [7]), 60 in test [4] (setting [11]) and 85 in test [4] (setting [8]). Further, the “Plant response rating, Morningglory” value in test [5] (setting [7]) came out at 5; in test [5] (setting [11]) it was 20; in test [5] (setting [8]), 40. Further, the “Plant response rating (0 to 100 scale), Velvetleaf” value in test [6] (setting [12]) is recorded as 100. Besides, the “Velvetleaf plant response rating” value in test [6] (setting [13]) is on record as 50; in test [6] (postemergence, 500 g ai/ha, scale 0 to 100, 0 is no effect, 100 is complete control), 60.
`CCn1nc2c(c1C(=O)Nc1cc(C(=O)N(C)C)ccc1F)CCC2(C)C` [Compound 352, N-[5-[(dimethylamino)carbonyl]-2-fluorophenyl]-2-ethyl-2,4,5,6-tetrahydro-6,6-dimethyl-3-cyclopentapyrazolecarboxamide]: the “Plant response rating (0 = no effect, 100 = complete control), Soybean” value in test [1] (preemergence) worked out at 15. The plant injury at 62 g/ha in test [1] (Glycine max, pre-emergence, 62 g ai/ha, preemergence, scale 0 to 100, read-out: Plant response rating, Soybean) was 0%. Further, the plant injury at 250 g/ha in test [1] (Glycine max, pre-emergence, 250 g ai/ha, scale 0-100, read-out: Plant response rating, Soybean) is 50%. Also, in test [1] (Glycine max, pre-emergence, 500 g ai/ha, scale 0 to 100 (0 no effect, 100 complete control), visual, 12 to 14 days, read-out: Plant response rating, Soybean), the plant injury at 500 g/ha stood at 70%. Moreover, the “Plant response rating (0 = no effect, 100 = complete control), Bermudagrass” value in test [2] (125 g ai/ha, preemergence) amounted to 100. Besides, the pest or weed control at 62 g/ha in test [2] (Cynodon dactylon, pre-emergence, 312 h, 62 g ai/ha, preemergence, scale 0 to 100, 0 no effect, 100 complete control, read-out: Plant response rating, Bermudagrass) is 95%; in test [3] (Eleusine indica, pre-emergence, 312 h, 62 g ai/ha, preemergence, scale 0 to 100, read-out: Plant response rating, Goosegrass), 80%; in test [4] (Eriochloa villosa, pre-emergence, 312 h, 62 g ai/ha, preemergence, scale 0 to 100, read-out: Plant response rating, Cupgrass, Woolly) it was 5%; in test [5] (Ipomoea, pre-emergence, 62 g ai/ha, preemergence, scale 0 to 100, read-out: Plant response rating, Morningglory) it was 5%. In addition, the pest or weed control at 250 g/ha came to 100% in test [2] (Cynodon dactylon, pre-emergence, 312 h, 250 g ai/ha, scale 0-100, read-out: Plant response rating, Bermudagrass); 100% in test [3] (Eleusine indica, pre-emergence, 312 h, 250 g ai/ha, scale 0-100, read-out: Plant response rating, Goosegrass); 60% in test [4] (Eriochloa villosa, pre-emergence, 312 h, 250 g ai/ha, scale 0-100, read-out: Plant response rating, Cupgrass, Woolly); 40% in test [5] (Ipomoea, pre-emergence, 250 g ai/ha, scale 0-100, read-out: Plant response rating, Morningglory). The pest or weed control at 500 g/ha in test [2] (Cynodon dactylon, pre-emergence, 312 h, 500 g ai/ha, scale 0 to 100 (0 no effect, 100 complete control), visual, 12 to 14 days, read-out: Plant response rating, Bermudagrass) stood at 100%; in test [3] (Eleusine indica, pre-emergence, 312 h, 500 g ai/ha, scale 0 to 100 (0 no effect, 100 complete control), visual, 12 to 14 days, read-out: Plant response rating, Goosegrass), 100%; in test [4] (Eriochloa villosa, pre-emergence, 312 h, 500 g ai/ha, scale 0 to 100 (0 no effect, 100 complete control), visual, 12 to 14 days, read-out: Plant response rating, Cupgrass, Woolly) it was 85%; in test [5] (Ipomoea, pre-emergence, 500 g ai/ha, scale 0 to 100 (0 no effect, 100 complete control), visual, 12 to 14 days, read-out: Plant response rating, Morningglory), 60%; in test [6] (Abutilon theophrasti, post-emergence, 336 h, postemergence, 500 g ai/ha, scale 0 to 100, 0 is no effect, 100 is complete control, read-out: Velvetleaf plant response rating), 60%. For the same molecule, the “Plant response rating (0 = no effect, 100 = complete control), Goosegrass” value in test [3] (125 g ai/ha, preemergence) amounted to 85. For the same molecule, in test [4] (125 g ai/ha, preemergence), the “Plant response rating (0 = no effect, 100 = complete control), Cupgrass, Woolly” value is 50. In test [5] (125 g ai/ha, preemergence), the “Plant response rating (0 = no effect, 100 = complete control), Morningglory” value is recorded as 5. In addition, the “Plant response rating (0 to 100 scale), Velvetleaf” value in test [6] (setting [12]) amounted to 30. The pest or weed control at 125 g/ha in test [6] (Abutilon theophrasti, post-emergence, 336 h, 125 g ai/ha, visual rating, scale 0 (no effect) to 100 (complete control), read-out: Velvetleaf plant response rating) worked out at 10%.
On to `CCOC(=O)c1cccc(NC(=O)c2nn(C(C)(C)CC)nc2CC)c1` [Compound 375], for which the “Plant response rating, Soybean” value in test [1] (setting [7]) and in test [1] (setting [8]) was 0 each time. Besides, in test [1] (preemergence), the “Plant response rating (0 = no effect, 100 = complete control), Soybean” value stood at 0. Besides, the “Plant response rating, Bermudagrass” value is 95 in test [2] (setting [9]); 100 in test [2] (setting [10]); 100 in test [2] (setting [8]); 60 in test [2] (setting [14]); 30 in test [2] (setting [15]); 5 in test [2] (postemergence, 31 g ai/ha, scale 0 to 100). The “Plant response rating, Bermudagrass” value in test [2] (setting [16]) worked out at 20. For the same molecule, the “Plant response rating (0 = no effect, 100 = complete control), Bermudagrass” value in test [2] (125 g ai/ha, preemergence) is 100. Also, the “Plant response rating, Goosegrass” value is on record as 60 in test [3] (setting [7]); 100 in test [3] (setting [8]); 50 in test [3] (setting [14]); 15 in test [3] (setting [15]); 15 in test [3] (setting [16]). Besides, in test [3] (125 g ai/ha, preemergence), the “Plant response rating (0 = no effect, 100 = complete control), Goosegrass” value is 100. Besides, the “Plant response rating, Cupgrass, Woolly” value in test [4] (setting [7]) came out at 60; in test [4] (setting [8]) it was 70; in test [4] (setting [14]), 45; in test [4] (setting [15]), 30; in test [4] (setting [16]) it was 30. Besides, the “Plant response rating (0 = no effect, 100 = complete control), Cupgrass, Woolly” value in test [4] (125 g ai/ha, preemergence) is reported as 70. In addition, the figures for the “Plant response rating, Morningglory” value in test [5] (setting [7]), in test [5] (setting [8]) and in test [5] (setting [16]) were 0, 5 and 10, respectively. For the same molecule, in test [5] (125 g ai/ha, preemergence), the “Plant response rating (0 = no effect, 100 = complete control), Morningglory” value was 0. The “Plant response rating (0 to 100 scale), Velvetleaf” value in test [6] (setting [12]) is 30. Further, the “Velvetleaf plant response rating” value in test [6] (setting [13]) is reported as 70; in test [6] (setting [17]) it was 90.
Regarding `CCNC(=O)c1cccc(NC(=O)c2nn(C(C)(C)C)nc2C)c1` [Compound 392], the entries for the “Plant response rating, Soybean” value in test [1] (setting [7]), in test [1] (setting [8]) and in test [1] (setting [18]) were 5, 90 and 95, respectively. The “Plant response rating (0 = no effect, 100 = complete control), Soybean” value in test [1] (preemergence) turned out to be 80. For the same molecule, the “Plant response rating, Bermudagrass” value in test [2] (setting [10]) was found to be 90; in test [2] (setting [8]) it was 95; in test [2] (setting [18]), 95. Moreover, the “Plant response rating (0 = no effect, 100 = complete control), Bermudagrass” value in test [2] (125 g ai/ha, preemergence) worked out at 90. Also, the “Plant response rating, Goosegrass” value in test [3] (setting [7]) came to 85; in test [3] (setting [8]) it was 95; in test [3] (setting [18]), 98. The “Plant response rating (0 = no effect, 100 = complete control), Goosegrass” value in test [3] (125 g ai/ha, preemergence) is listed as 95. In addition, the “Plant response rating, Cupgrass, Woolly” value amounted to 30 in test [4] (setting [7]), 60 in test [4] (setting [8]) and 85 in test [4] (setting [18]). Also, the “Plant response rating (0 = no effect, 100 = complete control), Cupgrass, Woolly” value in test [4] (125 g ai/ha, preemergence) is given as 40. The entries for the “Plant response rating, Morningglory” value in test [5] (setting [7]), in test [5] (setting [8]) and in test [5] (setting [18]) were 70, 100 and 100, respectively. Further, the “Plant response rating (0 = no effect, 100 = complete control), Morningglory” value in test [5] (125 g ai/ha, preemergence) is 95. Further, the “Plant response rating (0 to 100 scale), Velvetleaf” value in test [6] (setting [12]) came out at 70. Moreover, the figures for the “Velvetleaf plant response rating” value in test [6] (setting [13]) and in test [6] (setting [17]) were 30 and 40, respectively.
